What follows are molecules tested on N27 rat dopaminergic neural cells (assay: MTT assay in N27 rat dopaminergic neural cells: inhibition of RSL3-induced cell death (ferroptosis)). Details: Rattus norvegicus, N27, 24 h, ferroptosis induced by 0.5 μM RSL3, 24 hours, viability by MTT.
Type: cell-based
Method: MTT Assay in N27 Rat Dopaminergic Neural Cells
N27 rat dopaminergic neural cells (Millipore, SCC048) were cultured in RPMI-1640 media (Wisent, 350-000) supplemented with 1×GlutaMAX (Gibco, 35050-061), 10% FBS (embryonic stem cell qualified; Wisent, 920-040), and 1× Penicillin-Streptomycin (Wisent, 450-201). Cells were grown in humidified tissue culture incubator at 37° C. with 5% CO2, for up to 10 passages. To evaluate the ability of test compounds to inhibit RSL3-induced cell death, N27 cells were seeded in clear 96-well tissue culture plates (Sarstedt, 83.3924) at a density of 15,000 cells/well. On the next day, the medium was changed to fresh complete RPMI-1640. Eight-point dilution series of test compounds were added to the cells. Then, ferroptosis was induced by addition of 0.5 μM RSL3 (vehicle-treated cells served as control). Ferrostatin-1 (Fer-1) was included in each assay as control inhibitor of ferroptosis. Plates were incubated for 24 hours at 37° C. in a tissue culture incubator, then cell viability was determined by MTT assay. Briefly, Thiazolyl Blue Tetrazolium Bromide [3-(4,5-dimethylthiazol-2-yl)-2,5-diphenyltetrazolium bromide or “MTT” ] (Sigma) stock solution (5 mg/mL in PBS, sterilized by filtration) was diluted 1:1 with complete growth medium, and added on the cells to a final concentration of 0.5 mg/mL. Cells were incubated with MTT for 4 hours at 37° C., protected from light, in a humidified, 5% CO2 atmosphere. Medium was then completely removed from the wells by gentle aspiration and converted MTT formazan crystals were dissolved in 150 μL of DMSO. Absorbance of converted dye was measured at 595 nm with background subtraction at 690 nm using the BioTek Cytation5 Microplate Reader. Blank reading (absorbance from wells containing media and vehicle only, no cells) was removed from all sample wells. Viability was calculated as a percentage of control cells (vehicle-treated cells were set as 100% viability). Dose-response curves were drawn and IC50 values were calculated using GraphPad Prism software, version 7.

CCCCCc1nc(NC2CCCC2)c2c(n1)S(=O)(=O)CCN2 [Compound B-602, N-cyclopentyl-8,8-dioxo-2-pentyl-6,7-dihydro-5H-pyrimido[4,5-b][1,4]thiazin-4-amine] and CCCCCc1nc2c(c(NC3CCCC3)n1)NC(C)(C)CC2 [Compound B-917, N-cyclopentyl-6,6-dimethyl-2-pentyl-5H,6H,7H,8H-pyrido[3,2-d]pyrimidin-4-amine] cannot be ordered by IC50: no less than 3000 nM for the first, greater than 3000 nM for the second.

First: CCC/C=C/c1nc(NC2CCOC2)c2c(n1)OCC(=O)N2 (stereo not shown) [Compound B-603, 4-[(oxolan-3-yl)amino]-2-[(1E)-pent-1-en-1-yl]-5H,6H,7H-pyrimido[4,5-b][1,4]oxazin-6-one]
Second: CCC/C=C/c1nc(NC2CCCC2)c2c(n1)OCCN2 [Compound B-710, N-cyclopentyl-2-[(E)-pent-1-enyl]-6,7-dihydro-5H-pyrimido[4,5-b][1,4]oxazin-4-amine]
The IC50 of the first is higher: greater than 3000 nM for the first, 22 nM for the second. The second is the more potent here.

CCCCCc1nc(NC2CCOC2)c2c(n1)OCCN2 (stereo not shown) [Compound B-604, 2-pentyl-N-tetrahydrofuran-3-yl-6,7-dihydro-5H-pyrimido[4,5-b][1,4]oxazin-4-amine] and CCCCC(=O)c1nc(NC2CCCC2)c2c(n1)OCCN2 [Compound B-763, 1-[4-(cyclopentylamino)-5H,6H,7H-pyrimido[4,5-b][1,4]oxazin-2-yl]pentan-1-one] are within 1.5-fold of each other in IC50: 388 nM for the first, 391 nM for the second.

First: CCOC(=O)c1ccc(NC2CCCCC2)c(N)n1 [Compound B-626, FER-1]
Second: CCC(C)Nc1ccc(C(F)(F)F)nc1NC1CCCC1 (stereo not shown) [Compound K-65, N^2-cyclopentyl-N^3-sec-butyl-6-(trifluoromethyl)pyridine-2,3-diamine]
The IC50 of the first is 2.4-fold higher: 108 nM for the first, 45 nM for the second.

Compared with CCCCC(=O)c1cc2c(c(NC3CCCC3)n1)NCCC2 [Compound B-647, 1-[8-(cyclopentylamino)-1,2,3,4-tetrahydro-1,7-naphthyridin-6-yl]pentan-1-one], CCCCC(=O)c1nc2c(c(NC3CCCC3)n1)NCCC2 [Compound C-82, 1-[4-(cyclopentylamino)-5,6,7,8-tetrahydropyrido[3,2-d]pyrimidin-2-yl]pentan-1-one] is 10-fold higher in IC50: 8 nM for the first, 84 nM for the second. The first is the more potent here.

Going from CCCCC(O)c1nc2c(c(NC3CCCC3)n1)NCCC2 (stereo not shown) [Compound C-79, 1-[4-(cyclopentylamino)-5,6,7,8-tetrahydropyrido[3,2-d]pyrimidin-2-yl]pentan-1-ol] to CC(=O)c1nc2c(c(NC3CCCC3)n1)NCCC2 [Compound C-92, 1-[4-(cyclopentylamino)-5,6,7,8-tetrahydropyrido[3,2-d]pyrimidin-2-yl]ethanone], the IC50 rises from 112 nM to 2070 nM (18-fold). The first is the more potent here.

First: c1nc2c(c(NC3CCCC3)n1)NCCC2 [Compound C-84, N-cyclopentyl-5,6,7,8-tetrahydropyrido[3,2-d]pyrimidin-4-amine]
Second: Clc1nc2c(c(NC3CCCC3)n1)NCCC2 [Compound J-84]
The IC50 of the first is 2.4-fold higher: 646 nM for the first, 273 nM for the second.

First: C(#Cc1nc2c(c(NC3CCCC3)n1)NCCC2)c1ccccc1 [Compound C-91, N-cyclopentyl-2-(2-phenylethynyl)-5,6,7,8-tetrahydropyrido[3,2-d]pyrimidin-4-amine]
Second: N#Cc1nc2c(c(NC3CCCC3)n1)NCCC2 [Compound F-38, 4-(cyclopentylamino)-5,6,7,8-tetrahydropyrido[3,2-d]pyrimidine-2-carbonitrile]
The IC50 of the first is 23-fold lower: 35 nM for the first, 812 nM for the second. The first is the more potent here.

Compared with CCCCC(O)c1nc2c(c(N3CCCC3)n1)NCCC2 (stereo not shown) [Compound E-09], CCCCCc1ccc(NC(C)CC)c(NC2CCCC2)n1 (stereo not shown) [Compound H-72, N^2-cyclopentyl-6-pentyl-N^3-sec-butyl-pyridine-2,3-diamine] is 82-fold lower in IC50: 492 nM for the first, 6 nM for the second.

First: CCC(C)Nc1cnc(-c2ccc(C)cc2)nc1NC1CCCC1 (stereo not shown) [Compound F-69, N^4-cyclopentyl-2-(p-tolyl)-N^5-sec-butyl-pyrimidine-4,5-diamine]
Second: CCC(C)Nc1ccc(-c2ccc(C)cc2)nc1NC1CCCC1 (stereo not shown) [Compound H-61, N^2-cyclopentyl-6-(p-tolyl)-N^3-sec-butyl-pyridine-2,3-diamine]
The IC50 of the first is 4-fold higher: 28 nM for the first, 7 nM for the second. The second is the more potent here.

CCC(C)Nc1cnc(-c2cccnc2)nc1NC1CCCC1 (stereo not shown) [Compound F-78, N^4-cyclopentyl-2-(3-pyridyl)-N^5-sec-butyl-pyrimidine-4,5-diamine] and CCC(C)Nc1cnc(-c2ccncc2)nc1NC1CCCC1 (stereo not shown) [Compound F-88, N^4-cyclopentyl-2-(4-pyridyl)-N^5-sec-butyl-pyrimidine-4,5-diamine] are within 1.5-fold of each other in IC50: 89 nM for the first, 106 nM for the second.

Going from CCC(C)Nc1cnc(-c2cncnc2)nc1NC1CCCC1 (stereo not shown) [Compound F-81, N^4-cyclopentyl-2-pyrimidin-5-yl-N^5-sec-butyl-pyrimidine-4,5-diamine] to CCC(C)Nc1ccc(-c2cncnc2)nc1NC1CCCC1 (stereo not shown) [Compound H-80, N^2-cyclopentyl-6-pyrimidin-5-yl-N^3-sec-butyl-pyridine-2,3-diamine], the IC50 falls from 121 nM to 7 nM (17-fold).

Compared with c1ncc(-c2ncc(NC3COC3)c(NC3CCCC3)n2)cn1 [Compound F-82, N^4-cyclopentyl-N^5-(oxetan-3-yl)-2-pyrimidin-5-yl-pyrimidine-4,5-diamine], c1ncc(-c2ccc(NC3COC3)c(NC3CCCC3)n2)cn1 [Compound H-84, N^2-cyclopentyl-N^3-(oxetan-3-yl)-6-pyrimidin-5-yl-pyridine-2,3-diamine] is lower in IC50: greater than 625 nM for the first, 32 nM for the second.

First: CC(C)=Cc1nc(C)nc(NC2CCCC2)c1N [Compound F-99, N^4-cyclopentyl-2-methyl-6-(2-methylprop-1-enyl)pyrimidine-4,5-diamine]
Second: Cc1ccc(-c2nc(NC3CCCC3)c3c(n2)C(=O)N(C)C(C)(C)N3)cc1 [Compound K-36, 8-(cyclopentylamino)-2,2,3-trimethyl-6-(p-tolyl)-1H-pyrimido[5,4-d]pyrimidin-4-one]
The IC50 of the first is higher: greater than 625 nM for the first, 525 nM for the second. The second is the more potent here.

CCC(C)Nc1ccc(-c2cccnc2)nc1NC1CCCC1 (stereo not shown) [Compound H-74, N^2-cyclopentyl-6-(3-pyridyl)-N^3-sec-butyl-pyridine-2,3-diamine] and CCC(C)Nc1ccc(-c2ccncc2)nc1NC1CCCC1 (stereo not shown) [Compound H-76, N^2-cyclopentyl-6-(4-pyridyl)-N^3-sec-butyl-pyridine-2,3-diamine] are within 1.5-fold of each other in IC50: 5 nM for the first, 6 nM for the second.

First: c1cncc(-c2ccc(NC3COC3)c(NC3CCCC3)n2)c1 [Compound H-75, N^2-cyclopentyl-N^3-(oxetan-3-yl)-6-(3-pyridyl)pyridine-2,3-diamine]
Second: c1cc(-c2ccc(NC3COC3)c(NC3CCCC3)n2)ccn1 [Compound H-77, N^2-cyclopentyl-N^3-(oxetan-3-yl)-6-(4-pyridyl)pyridine-2,3-diamine]
The IC50 of the first is 3.4-fold higher: 44 nM for the first, 13 nM for the second. The second is the more potent here.

Compared with Cc1ccc(-c2ccc(NC3COC3)c(NC3CCCC3)n2)cc1 [Compound H-81, N^2-cyclopentyl-N^3-(oxetan-3-yl)-6-(p-tolyl)pyridine-2,3-diamine], COc1ccc(-c2ccc(NC3COC3)c(NC3CCCC3)n2)cc1 [Compound H-87, N^2-cyclopentyl-6-(4-methoxyphenyl)-N^3-(oxetan-3-yl)pyridine-2,3-diamine] is 1.7-fold lower in IC50: 5 nM for the first, 3 nM for the second.

First: CCC(C)Nc1ccc(-c2ccc(OC)cc2)nc1NC1CCCC1 (stereo not shown) [Compound H-86, N^2-cyclopentyl-6-(4-methoxyphenyl)-N^3-sec-butyl-pyridine-2,3-diamine]
Second: CCC(C)Nc1ccc(-c2ccc(C)cc2)nc1NC(C)(C)C [Compound L-02, N^2-tert-butyl-6-(p-tolyl)-N^3-sec-butyl-pyridine-2,3-diamine]
The IC50 of the first is 1.6-fold higher: 8 nM for the first, 5 nM for the second. The second is the more potent here.

First: CCOC(=O)c1cc(N)c2c(c1)OCCN2 [Compound I-85]
Second: CC1(Nc2nc(C(F)(F)F)ccc2NC2CCOC2)CCOC1 (stereo not shown) [Compound K-67, N^2-(3-methyltetrahydrofuran-3-yl)-N^3-tetrahydrofuran-3-yl-6-(trifluoromethyl)pyridine-2,3-diamine]
The IC50 of the first is higher: greater than 1000 nM for the first, 355 nM for the second.

Cc1ccc(-c2ccc(NC(C)(C)C)c(NC(C)(C)C)n2)cc1 [Compound L-03, N^2,N^3-di-tert-butyl-6-(p-tolyl)pyridine-2,3-diamine] gave an IC50 of 14 nM.

Same assay, conditions: Rattus norvegicus, N27, 24 h, ferroptosis induced by 0.5 μM RSL3, 24 hours, viability by MTT, cell unit uM

CCCCC(O)c1nc2c(c(Nc3ccccn3)n1)NCCC2 (stereo not shown) [Compound G-63, 1-[4-(2-pyridylamino)-5,6,7,8-tetrahydropyrido[3,2-d]pyrimidin-2-yl]pentan-1-ol] and CCCCC(=O)c1nc2c(c(Nc3ccccn3)n1)NCCC2 [Compound G-65, 1-[4-(2-pyridylamino)-5,6,7,8-tetrahydropyrido[3,2-d]pyrimidin-2-yl]pentan-1-one] cannot be ordered by IC50: greater than 10000 nM for the first, greater than 10000 nM for the second.

CNC(=O)c1nc(-c2ccc(C)cc2)nc2c1NC(C)(C)N2C1CCCC1 [Compound K-34] was tested, and the IC50 was greater than 10000 nM.

Same assay, conditions: Rattus norvegicus, ferroptosis induced by 0.5 μM RSL3, 24 hours, viability by MTT

Work on CCCCCc1nc(NC2CCCC2)c2c(n1)OCCN2 [Compound B-711, N-cyclopentyl-2-pentyl-5H,6H,7H-pyrimido[4,5-b][1,4]oxazin-4-amine] yielded an IC50 of 41 nM.

From patent US20220144826A1, “Heteroaromatic and Heterobicyclic Aromatic Derivatives for the Treatment of Ferroptosis-Related Disorders” (COLLABORATIVE MEDICINAL DEVELOPMENT, LLC, priority 2019, published 2022)
